Laboratory results from patent publication US11045457B2, “Piperidinyl-3-(aryloxy)propanamides and propanoates” (priority 2018, dated 2021).

target: SSTR4 (Homo sapiens (Human), UniProt P31391); assay: Inhibition of forskolin stimulated cAMP in CHO-K1 cells overexpressing SSTR4; assay type: cell-based
Summary of the method: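 Read-out is a HTRF LANCE Ultra cAMP competition using Eu-labelled streptavidin and biotin-cAMP, incubated 60 min at room temperature. It followed a 30 min room-temperature exposure of Kreb's Ringer-washed cells to compound plus forskolin. Potency is expressed as pEC50.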

SSTR4, sequence (P31391 whole entry): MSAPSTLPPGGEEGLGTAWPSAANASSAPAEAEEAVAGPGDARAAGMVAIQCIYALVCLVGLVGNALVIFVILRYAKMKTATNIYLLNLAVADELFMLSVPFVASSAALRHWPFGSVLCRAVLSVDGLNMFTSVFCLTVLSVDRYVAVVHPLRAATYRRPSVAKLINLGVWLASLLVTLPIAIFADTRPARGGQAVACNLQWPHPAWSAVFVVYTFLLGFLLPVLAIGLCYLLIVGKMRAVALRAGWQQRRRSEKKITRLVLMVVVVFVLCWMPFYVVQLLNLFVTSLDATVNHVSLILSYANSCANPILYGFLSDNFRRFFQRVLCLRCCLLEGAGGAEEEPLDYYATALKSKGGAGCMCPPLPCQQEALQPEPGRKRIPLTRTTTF

Row | SMILES | SSTR4 Activity pEC50
1 | CN1CCC(NC(=O)C(C)(C)COc2nnc(Cl)cc2C(F)(F)F)CC1 [Example 98, 3-((6-chloro-4-(trifluoromethyl)pyridazin-3-yl)oxy)-2,2-dimethyl-N-(1-methylpiperidin-4-yl)propanamide] | 6.2
2 | CN1CCC(NC(=O)C(C)(C)COc2ncc(Br)cc2C(F)(F)F)CC1 [Example 100, 3-((5-bromo-3-(trifluoromethyl)pyridin-2-yl)oxy)-2,2-dimethyl-N-(1-methylpiperidin-4-yl)propanamide] | 7.2
3 | Cc1cnc(OCC(C)(C)C(=O)NC2CCN(C)CC2)c(C(F)(F)F)c1 [Example 101, 2,2-dimethyl-3-((5-methyl-3-(trifluoromethyl)pyridin-2-yl)oxy)-N-(1-methylpiperidin-4-yl)propanamide] | 7.3
4 | CN1CCC(NC(=O)C(C)(C)COc2ncccc2C(F)(F)F)C(C)(C)C1 (stereo not drawn) [Example 112, 2,2-dimethyl-3-((3-(trifluoromethyl)pyridin-2-yl)oxy)-N-(1,3,3-trimethylpiperidin-4-yl)propanamide] | 6.1
5 | CN1CCC(NC(=O)C(C)(C)COc2ncccc2C(F)(F)F)C(F)(F)C1 (stereo not drawn) [Example 118, N-(3,3-difluoro-1-methylpiperidin-4-yl)-2,2-dimethyl-3-((3-(trifluoromethyl)pyridin-2-yl)oxy)propanamide] | 6.2
6 | CN1CCC(NC(=O)C(C)(C)COc2ncccc2C(F)(F)F)C(Cl)C1 (stereo not drawn) [Example 120, N-(3-chloro-1-methylpiperidin-4-yl)-2,2-dimethyl-3-((3-(trifluoromethyl)pyridin-2-yl)oxy)propanamide] | 5.9
7 | CC(C)(COc1ncccc1C(F)(F)F)C(=O)NC1CNCC1(F)F (stereo not drawn) [Example 131, N-(4,4-difluoropyrrolidin-3-yl)-2,2-dimethyl-3-((3-(trifluoromethyl)pyridin-2-yl)oxy)propanamide] | 6.1
8 | CN1CCC(NC(=O)C(C)(C)COc2ncccc2C(F)(F)F)CC1(C)C (stereo not drawn) [Example 132, 2,2-dimethyl-3-((3-(trifluoromethyl)pyridin-2-yl)oxy)-N-(1,2,2-trimethylpiperidin-4-yl)propanamide] | 7.1
9 | CCC1CC(NC(=O)C(C)(C)COc2ncccc2C(F)(F)F)CCN1C (stereo not drawn) [Example 137, N-(2-ethyl-1-methylpiperidin-4-yl)-2,2-dimethyl-3-((3-(trifluoromethyl)pyridin-2-yl)oxy)propanamide] | 6.7
10 | Cc1cccnc1OCC(C)(C)C(=O)N[C@@H]1CCN(C)C[C@H]1C [Example 142, N-((3R,4R)-1,3-dimethylpiperidin-4-yl)-2,2-dimethyl-3-((3-methylpyridin-2-yl)oxy)propanamide] | 6.1

Next, values leading:

Row | SSTR4 Activity pEC50 | SMILES
11 | 7.9 | CCc1ccccc1OCC(C)(C)C(=O)NC1CN(C)CC1c1ccccc1 (stereo not drawn) [Example 97, 3-(2-ethylphenoxy)-2,2-dimethyl-N-(1-methyl-4-phenylpyrrolidin-3-yl)propanamide]
12 | 7.1 | CN1CCC(NC(=O)C(C)(C)COc2nccc3occc23)CC1 [Example 99, 3-(furo[3,2-c]pyridin-4-yloxy)-2,2-dimethyl-N-(1-methylpiperidin-4-yl)propanamide]
13 | 5.9 | CN1CCC(NC(=O)C(C)(C)COc2ncccc2C(F)(F)F)C(F)C1 (stereo not drawn) [Example 113, N-(3-fluoro-1-methylpiperidin-4-yl)-2,2-dimethyl-3-((3-(trifluoromethyl)pyridin-2-yl)oxy)propanamide]
14 | 6.6 | Cc1cnc(OCC(C)(C)C(=O)N[C@H]2CCN(C)C[C@@H]2F)c(C)c1 [Example 122, 3-((3,5-dimethylpyridin-2-yl)oxy)-N-((3S,4S)-3-fluoro-1-methylpiperidin-4-yl)-2,2-dimethylpropanamide]
15 | 6.2 | CC[C@H]1CN(C)CC[C@@H]1NC(=O)C(C)(C)COc1ncccc1C(F)(F)F [Example 145, N-((3S,4S)-3-ethyl-1-methylpiperidin-4-yl)-2,2-dimethyl-3-((3-(trifluoromethyl)pyridin-2-yl)oxy)propanamide]
